According to the NIST ThermoML archive (doi:10.1021/je201002j):

Experiments:
[1] = molar heat capacity at constant pressure; conditions: 101.33 kPa, Liquid, Small sample (50 mg) DSC
[2] = 101.33 kPa, Liquid, Vibrating tube method

BrCCCCCCCCBr [1,8-dibromooctane]
[1]
Conditions	molar heat capacity at constant pressure [J/K/mol]
288.15 K	302.23
289.65 K	302.83
291.15 K	303.43
292.65 K	304.03
294.15 K	304.63
295.65 K	305.23
297.15 K	305.83
298.15 K	306.23
298.65 K	306.43
300.15 K	307.03
301.65 K	307.63
303.15 K	308.23
304.65 K	308.82
306.15 K	309.42
307.65 K	310.02
309.15 K	310.61
310.65 K	311.21
312.15 K	311.8
313.65 K	312.39
315.15 K	312.99
316.65 K	313.58
318.15 K	314.17
319.65 K	314.76
321.15 K	315.35
322.65 K	315.94
324.15 K	316.53
325.65 K	317.12
327.15 K	317.71
328.65 K	318.3
330.15 K	318.88
331.65 K	319.47
333.15 K	320.05
334.65 K	320.64
336.15 K	321.22
337.65 K	321.81
339.15 K	322.39
340.65 K	322.97
342.15 K	323.56
343.65 K	324.14
345.15 K	324.72
346.65 K	325.3
348.15 K	325.88
349.65 K	326.46
351.15 K	327.04
352.65 K	327.62
354.15 K	328.19
355.15 K	328.58

BrCCCCCCCCCBr [1,9-dibromononane]
[1]
Conditions	molar heat capacity at constant pressure [J/K/mol]
286.65 K	330.9
288.15 K	331.44
289.65 K	332
291.15 K	332.56
292.65 K	333.14
294.15 K	333.72
295.65 K	334.3
297.15 K	334.9
298.15 K	335.29
298.65 K	335.5
300.15 K	336.1
301.65 K	336.72
303.15 K	337.34
304.65 K	337.96
306.15 K	338.59
307.65 K	339.23
309.15 K	339.87
310.65 K	340.52
312.15 K	341.17
313.65 K	341.83
315.15 K	342.49
316.65 K	343.16
318.15 K	343.83
319.65 K	344.5
321.15 K	345.18
322.65 K	345.86
324.15 K	346.54
325.65 K	347.22
327.15 K	347.91
328.65 K	348.6
330.15 K	349.3
331.65 K	349.99
333.15 K	350.69
334.65 K	351.39
336.15 K	352.08
337.65 K	352.78
339.15 K	353.49
340.65 K	354.19
342.15 K	354.89
343.65 K	355.59
345.15 K	356.29
346.65 K	356.99
348.15 K	357.69
349.65 K	358.39
351.15 K	359.09
352.65 K	359.79
354.15 K	360.49
355.15 K	360.95

BrCCCCCCCCCCCBr [1,11-dibromoundecane]
[1]
Conditions	molar heat capacity at constant pressure [J/K/mol]
285.15 K	389.4
286.65 K	389.99
288.15 K	390.59
289.65 K	391.2
291.15 K	391.83
292.65 K	392.47
294.15 K	393.12
295.65 K	393.79
297.15 K	394.47
298.15 K	394.92
298.65 K	395.16
300.15 K	395.85
301.65 K	396.56
303.15 K	397.28
304.65 K	398.01
306.15 K	398.75
307.65 K	399.5
309.15 K	400.25
310.65 K	401.02
312.15 K	401.79
313.65 K	402.57
315.15 K	403.35
316.65 K	404.15
318.15 K	404.94
319.65 K	405.75
321.15 K	406.56
322.65 K	407.37
324.15 K	408.19
325.65 K	409.01
327.15 K	409.84
328.65 K	410.67
330.15 K	411.5
331.65 K	412.33
333.15 K	413.17
334.65 K	414.01
336.15 K	414.84
337.65 K	415.68
339.15 K	416.53
340.65 K	417.37
342.15 K	418.21
343.65 K	419.04
345.15 K	419.88
346.65 K	420.72
348.15 K	421.55
349.65 K	422.38
351.15 K	423.21
352.65 K	424.04
354.15 K	424.86
355.15 K	425.41

BrCCCCCCCCCCCCBr [1,12-dibromododecane]
[1]
Conditions	molar heat capacity at constant pressure [J/K/mol]
310.65 K	432.62
312.15 K	433.39
313.65 K	434.17
315.15 K	434.98
316.65 K	435.79
318.15 K	436.62
319.65 K	437.46
321.15 K	438.31
322.65 K	439.17
324.15 K	440.04
325.65 K	440.91
327.15 K	441.8
328.65 K	442.68
330.15 K	443.57
331.65 K	444.47
333.15 K	445.36
334.65 K	446.26
336.15 K	447.15
337.65 K	448.04
339.15 K	448.93
340.65 K	449.82
342.15 K	450.69
343.65 K	451.57
345.15 K	452.43
346.65 K	453.29
348.15 K	454.13
349.65 K	454.96
351.15 K	455.78
352.65 K	456.59
354.15 K	457.38
355.15 K	457.9

ClCCBr [1-bromo-2-chloroethane]
[2]
Conditions	mass density [kg/m3]
288.15 K	1742.45
298.15 K	1726.56
308.15 K	1710.57
318.15 K	1693.61

ClCCCBr [1-bromo-3-chloropropane]
[2]
Conditions	mass density [kg/m3]
288.15 K	1601.96
298.15 K	1588.17
308.15 K	1574.87
318.15 K	1560.65

ClCCCCBr [1-bromo-4-chlorobutane]
[2]
Conditions	mass density [kg/m3]
288.15 K	1496.19
298.15 K	1485.12
308.15 K	1473.33
318.15 K	1460.96

ClCCCCCBr [1-bromo-5-chloropentane]
[2]
Conditions	mass density [kg/m3]
288.15 K	1409.7
298.15 K	1399.37
308.15 K	1388.77
318.15 K	1377.96

ClCCCCCCBr [1-bromo-6-chlorohexane]
[2]
Conditions	mass density [kg/m3]
288.15 K	1345.17
298.15 K	1336.47
308.15 K	1327.17
318.15 K	1316.45
